{"source": "patent US20050148553A1", "about": "“Use of tigecycline, alone, or in combination with rifampin to treat osteomyelitis and/or septic arthritis” (priority 2003, published 2005)", "key": {"[1]": {"tested_on": "Acinetobacter baumannii", "test": "Compassionate use study, osteomyelitis patient", "type": "in vivo, human", "conditions": "50 mg every 12 or 24 hours for two months; within one month", "procedure": "The patient was treated with meropenem and tobramycin. […] The patient was then treated with tigecycline for two months with either 50 mg every 12 hours or 50 mg every 24 hours."}, "[2]": {"test": "Tigecycline in human serum, tissue and synovial fluid after one intravenous 100 mg dose (LC/MS/MS)", "type": "in vivo", "parameters": "Calculated Concentration, serum: unit not given here", "procedure": "The objective of this study was to determine the tissue and corresponding serum concentration of tigecycline at selected time points in lung, colon, gallbladder tissues, bone, and synovial fluid. Samples were taken from subjects scheduled for lung, colon, gallbladder, or bone surgery, or a lumbar puncture who were given a single dose of tigecycline administered intravenously.\nPre-specified tissue/fluid sampling of either lung, colon, gallbladder, bone, and synovial fluid was performed on each subject during surgery at 4 hours, 8 hours, 12 hours, or 24 hours after the start of a single dose of 100 mg tigecycline administered over 30 minutes. Serum was collected from all subjects at hour 0 (before the first dose), approximately 30 minutes (end of infusion), and at the time corresponding to tissue/fluid collections. Tissue and serum concentration was determined according to the method set forth below.\nSamples of human serum and tissue from study subjects who had received tigecycline were analyzed according to methods that had been previously validated. Serum samples and synovial fluid (0.2 ml) were mixed with 0.6 ml internal standard in acetonitrile, the supernatant evaporated to dryness and the residue reconstituted in 200 microliters mobile phase. Aliquots (10 microliters) of the reconstituted samples were injected into an LC/MS/MS.\nThe data was acquired by and analyzed on PE SCIEX “Analyst” version 1.3 software. Linear regression, with 1/x^2 weighting was used to obtain the best fit of the data for the calibration curves. The lower limit of quantitation was 10 ng/ml for serum and synovial fluid samples, 10 ng/g for the colon and gall bladder samples, and 30 ng/g for the bone samples.\nTigecycline was measured in human serum using an LC/MS/MS method. The primary stock solution of tigecycline was prepared at 1 mg/ml by dissolving in methanol. A secondary stock solution was prepared from the primary stock solution by diluting to a concentration of approximately 40,000 ng/ml with acetonitrile. The stock solutions were stored at −20° C. when not in use. A primary internal standard solution of tert-butyl-d9-tigecycline was prepared at a concentration of 1 mg/ml in methanol. A secondary internal standard stock solution was prepared by diluting the primary stock solution to a concentration of 100 micrograms/ml in acetonitrile with 0.1% trifluoroacetate added. The primary and secondary stock solutions were stored at −20° C. The working internal standard was prepared by diluting to volume with acetonitrile/0.1% trifluoroacetate. The working internal standard was stored at 4° C. when not in use. On the day of analysis, the secondary stock solution was brought to room temperature before use to prepared the standard curve working solutions. The standard curve was prepared at approximately 2000, 1600, 1000, 500, 250, 100, 50, 20, and 10 ng/ml by serial dilution in blank human serum.\nThe extraction procedure was as follows: to 200 microliters of calibrator, quality control or sample was added 600 microliters of internal standard working solution and vortex mixed. The samples were centrifuged for 10 minutes at 13000 rpm to separate the layers and the supernatant was transferred to a culture tube. The samples were evaporated to dryness in a Speed Vac. The residues were reconstituted by sonicating in 200 microliters of mobile phase and 10 microliters was injected in the LC/MS/MS. […]"}}, "note": "Several values for one entry are separate records, joined by “and”; a condition that tells them apart may be missing. Equal entries are not always repeated.", "data": [{"smiles": "CN(C)c1cc(NC(=O)CNC(C)(C)C)c(O)c2c1C[C@H]1C[C@H]3[C@H](N(C)C)C(O)=C(C(N)=O)C(=O)[C@@]3(O)C(O)=C1C2=O", "note": "[Tigecycline]", "values": [{"measurement": "clinical outcome (MRI)", "setting": "[1]", "value": "resolution of the osteomyelitis"}, {"measurement": "Calculated Concentration, tissue", "setting": "[2]; Lung, 4 to 24 hours after dose", "value": 653, "unit": "n2/2"}, {"measurement": "concentration at 8 h", "setting": "[2]; human, synovial fluid, intravenous, 100 mg, synovial fluid, 8 Hour, read-out: Calculated Concentration, synovial fluid", "value": 70.9, "unit": "ng/mL"}, {"measurement": "concentration at 12 h", "setting": "[2]; human, synovial fluid, intravenous, 100 mg, synovial fluid, 12 Hour, read-out: Calculated Concentration, synovial fluid", "value": 111, "unit": "ng/mL"}, {"measurement": "Calculated Concentration, serum", "setting": "[2]; serum, 8 Hour", "value": "198 {n&mll and 186 {n&mll and 133 {n&mll and 206 {n&mll"}, {"measurement": "Calculated Concentration, synovial fluid", "setting": "[2]; synovial fluid, 12 Hour", "value": "65.0 ng/mL and 65.7 ng/mL and 62.8 ng/mL"}]}]}
